Test results taken from US20080311103A1, “Anti-Inflammatory Peptides and Methods of Use Thereof” (YEDA RESEARCH AND DEVELOPMENT CO. LTD. at THE WEIZMANN …, priority 2004, published 2008).

Assays:
NF-κB = assay: Nuclear translocation of NF-κB in T cells (Western blot); format: cell-based; conditions: peptide 100 ng/ml for 2 hours, then anti-CD3 mAb 24 hr; human T cells
From the text: To address the modulatory role of the wound fluid peptides on the signal transduction cascade leading to regulation of T-cell secretion of TNF-α(and IFN-γ, the nuclear translocation of NF-κB was detected by probing nuclear and cytoplasmic T-cell extracts using mAb specific for the p65 subunit of NF-κB. The nuclear protein Lamin B was used as continuatively expressed control protein for the quantification of protein amounts.
Human T cells. T cells were purified from the peripheral blood of healthy human donors (Blood Bank; Tel-Hashomer, Israel). The whole blood was incubated (20 min, 22° C.) with RosetteSep™ human T-cell enrichment cocktail (StemCell Technologies, Vancouver, BC, Canada). The remaining unsedimented cells were then loaded onto Lymphocyte Separation Medium (ICN Biomedicals; Belgium), isolated by density centrifugation, and washed with PBS. The purified cells (>95% CD3^+ T cells) so obtained were cultured in RPMI containing antibiotics and 10% heat-inactivated FCS. Western blot analysis of T-cell nuclear extracts. Purified T cells (5×10^6) were preincubated with the peptides (100 ng/ml) for 2 hours (37° C. in a 7% CO2, humidified atmosphere). The cells were then replated in 24-well plates pre-coated with anti-CD3 mAb for 24 hr (37° C. in a 7% CO2, humidified atmosphere). T cells were lysed in 10 mM HEPES, 1.5 mM MgCl2, 1 mM dithiothreitol (DTT), 1 mM PMSF, 0.5% Nonidet P-40. The lysates were incubated on ice for 10 min and centrifuged at 2000 rpm for 10 min at 4° C. The supernatants (cytoplasmic extracts) were transferred and the pellet (nuclei) was suspended in buffer containing 30 mM HEPES, 450 mM NaCl, 25% Glycerol, 0.5 mM EDTA, 6 mM DTT, 12 mM MgCl2 1 mM PMSF, 10 μg/ml leupeptin, 10 μg/ml pepstatin, 1% phosphatase inhibitor cocktail, and the suspension was incubated on ice for 30 min. The lysates were cleared by centrifugation (30 min, 14×10^3 rpm, 4° C.), and the resulting supernatants analyzed for protein content. […]

[1] = test system: mice sensitized with oxazolone; format: in vivo, mouse; conditions: FIG. 1; peptides by implanted osmotic pump, 0.2 μg/hour for 7 days; ear measured 24 hours after oxazolone challenge; BALB/c mice
Description: Groups of 5 female inbred BALB/c mice (The Jackson Laboratory, Bar Harbor, Me.) were sensitized on the shaved abdominal skin with 2% oxazolone (100 μl) dissolved in acetone/olive oil [4:1 (vol/vol)] applied topically. Delayed type hypersensitivity (DTH) was elicited 5 days later by challenging the mice with 0.5% oxazolone in acetone/olive oil (10 μl given topically to each side of the ear). A constant area of the ear was measured immediately before and 24 hours after the challenge using a Mitutoyo engineer's micrometer. The percent inhibition of DTH is calculated as follows:
% Inhibition=[1-{(treated−negative control)/(positive control−negative control)}]×100.
The positive control is the DTH reaction to oxazolone elicited in sensitized mice without treatment. The negative control is the background swelling produced by the oxazolone antigen in naïve non-sensitized mice.
Peptides Nos. 1-5 were given to the mice by mini perfusion pumps (alzet osmotic pump model 2001), which contained the indicated peptide (40 μg; 200 μl). The pumps were implanted under the mouse skin one day before oxazolone sensitization and they released the peptide in a rate of 1 μl per hour (0.2 μg/hour) for 7 days.
Peptides Nos. 6-10 were given to the mice by subcutaneously injection (1 μg or 10 μg per mouse), every day, starting at one day before oxazolone sensitization and ending at day 5 post DTH initiation.

[2] = test system: anti-CD3 antibody induced IFNγ secretion from T cells; assay: IFNγ secretion by anti-CD3 activated T cells; format: cell-based, human; design: concentration or dose not given beside the values; conditions: 24 hours; ELISA; FIG. 7B
Description: (§1) Human T cells were purified and maintained in culture (RPMI containing 10% FCS, 1% Pyruvate, 1% glutamine, 1% antibiotics, 7.5% CO2, humidified atmosphere) for 15 hr before they were transferred to RPMI and activated (2 hr, 37° C.) with the indicated concentrations of the peptides. The cells were then plated (1.5×10^6 cells/0.5 ml/well) in 24 wells plates (non-tissue culture grade) precoated with anti-CD3 mAb in order to stimulate the cells to secrete cytokines. After 24 hours, the supernatants were collected and their cytokine content (TNFα and IFNγ) was determined by ELISA using anti-IFNγ and anti TNFα mAb (Pharmingen; San Diego, Calif.) according to the manufacturer's instructions.

[3] = test system: lymph node cells of oxazalone-sensitized mice transferred to syngeneic recipient mice; assay: Adoptive transfer DTH assay; format: in vivo, mouse; conditions: lymph node cells incubated 20 hours with peptide (10 rig/ml), injected i.v. to recipient mice; ear swelling after 24 hours
Description: Female inbred BALB/c mice (The Jackson Laboratory, Bar Harbor, Me.) were sensitized on the shaved abdominal skin with 2% oxazalone (100 μl) dissolved in acetone/olive oil [4:1 (vol/vol)]. Two donor mice were sensitized for one recipient mouse. On day 5, lymph nodes were removed and single-cell suspensions of lymph node cells were prepared. Lymph node cells were incubated (20 hours) with either peptide No. 3 or peptide No. 5 (10 rig/ml) in RPMI 1640 containing 10% FCS. After the incubation, the cells were washed, resuspended with PBS and injected intravenously (40 million cells per mouse) to syngeneic recipient mice. The mice were immediately challenged with 0.5% oxazalone in acetone/olive oil (10 μl given topically to each side of the ear) to elicit DTH reactions. The increment of ear swelling was measured after 24 hours.

[4] = test system: anti-CD3 antibody induced TNFα secretion from T cells; assay: TNFα secretion by anti-CD3 activated T cells; format: cell-based, human; conditions: peptide 100 ng/ml; 24 hours; ELISA; FIG. 7A
Description: as §1

Sequence: WDNLEKETEGL [peptide No. 3, residues 96-106 of Apo A-I; identified in wound fluids, then synthesized]
- NF-κB translocation to the nucleus (NF-κB): significant down-regulation
- inhibition of DTH response [1]: ~40%
- inhibition of anti-CD3 antibody induced IFNγ secretion from T cells [2]: 65%
- inhibition of adoptive transfer DTH response [3]: 80%
- inhibition of anti-CD3 antibody induced TNFα secretion from T cells [4]: 50%
